Reference: US7566739B2, “Substituted N-sulfonylaminophenylethyl-2-phenoxyacetamide compounds as VR1 receptor antagonists” (Pfizer Inc., priority 2005, dated 2009)

Key:
[1] = Half-life in human liver microsomes (HLM); assay type: in vitro ADME; settings: human liver microsomes (HLM, HL101), 1 μM compound, 0.78 mg/mL HLM, pH 7.4, 37° C., NADPH
Protocol: Test compounds (1 μM) were incubated with 3.3 mM MgCl2 and 0.78 mg/mL HLM (HL101) in 100 mM potassium phosphate buffer (pH 7.4) at 37° C. on the 96-deep well plate. The reaction mixture was split into two groups, a non-P450 and a P450 group. NADPH was only added to the reaction mixture of the P450 group. An aliquot of samples of P450 group was collected at 0, 10, 30, and 60 minute time points, where the 0 minute time point indicated the time when NADPH was added into the reaction mixture of P450 group. An aliquot of samples of non-P450 group was collected at −10 and 65 minute time points. Collected aliquots were extracted with an acetonitrile solution containing an internal standard. The precipitated protein was spun down in a centrifuge (2000 rpm, 15 min). The compound concentration in supernatant was measured by LC/MS/MS system.
The half-life value was obtained by plotting the natural logarithm of the peak area ratio of compounds/internal standard versus time. The slope of the line of best fit through the points yields the rate of metabolism (k). This was converted to a half-life value using following equations: Half-life=ln 2/k Mono-Iodoacetate (MIA)-Induced OA Model

[2] = biological target: human VR1 (Homo sapiens, UniProt Q8NER1); experiment: Human VR1 antagonist assay (Ca2+ imaging, capsaicin stimulation); assay type: cell-based; settings: human VR1 expressing cells; concentration reducing capsaicin-evoked Ca2+ influx by 50%; capsaicin 300 nM; read-out: hVR1 IC50
Text: VR1 antagonistic activity can be determined by the Ca^2+ imaging assay using human VR1 highly expressing cells. The cells that highly express human VR1 receptors are obtainable from several different conventional methods. The one standard method is cloning from human Dorsal Root Ganglion (DRG) or kidney according to the methods such as described in the journal article; Nature, 389, pp 816-824, 1997. Alternatively VR1 receptors highly expressing human keratinocytes are also known and published in the journal article (Biochemical and Biophysical Research Communications, 291, pp 124-129, 2002). […] Such a genetic modification method was described in detail; Nat. Biotechnol., 19, pp 440-445, 2001. The cells that express human VR1 receptors were maintained in culture flask at 37° C. in an environment containing 5% CO2 until use in the assay. The intracellular Ca^2+ imaging assay to determine VR1 antagonistic activities was done according to the following procedures. The culture medium was removed from the flask and fura-2/AM fluorescent calcium indicator was added to the flask at a concentration of 5 μM in the medium. The flask was placed in CO2 incubator and incubated for 1 hour. Then the cells expressing the human VR1 receptors were detached from the flask follow by washing with phosphate buffer saline, PBS(−) and re-suspended in assay buffer. The 80 μl of aliquot of cell suspension (3.75×10^5 cells/ml) was added to the assay plate and the cells were spun down by centrifuge (950 rpm, 20° C., 3 minutes). The capsaicin-induced changes in the intracellular calcium concentration were monitored using FDSS 6000 (Hamamatsu Photonics, Japan), a fluorometric imaging system. The cell suspension in Krebs-Ringer HEPES (KRH) buffer (115 mM NaCl, 5.4 mM KCl, 1 mM MgSO4, 1.8 mM CaCl2, 11 mM D-Glucose, 25 mM HEPES, 0.96 mM Na2HPO4, pH 7.3) was pre-incubated with varying concentrations of the test compounds or KRH buffer (buffer control) for 15 minutes at room temperature under dark conditions. Then the capsaicin solution, which gives 300 nM in assay mixture, was automatically added to the assay plate by the FDSS 6000. The monitoring of the changes in the fluorescence signals (λex=340 nm/380 nm, λem=510-520 nm) was initiated at 1 minute prior to the addition of capsaicin solution or acidic buffer and continued for 5 minute.

human VR1, sequence (Q8NER1 whole entry): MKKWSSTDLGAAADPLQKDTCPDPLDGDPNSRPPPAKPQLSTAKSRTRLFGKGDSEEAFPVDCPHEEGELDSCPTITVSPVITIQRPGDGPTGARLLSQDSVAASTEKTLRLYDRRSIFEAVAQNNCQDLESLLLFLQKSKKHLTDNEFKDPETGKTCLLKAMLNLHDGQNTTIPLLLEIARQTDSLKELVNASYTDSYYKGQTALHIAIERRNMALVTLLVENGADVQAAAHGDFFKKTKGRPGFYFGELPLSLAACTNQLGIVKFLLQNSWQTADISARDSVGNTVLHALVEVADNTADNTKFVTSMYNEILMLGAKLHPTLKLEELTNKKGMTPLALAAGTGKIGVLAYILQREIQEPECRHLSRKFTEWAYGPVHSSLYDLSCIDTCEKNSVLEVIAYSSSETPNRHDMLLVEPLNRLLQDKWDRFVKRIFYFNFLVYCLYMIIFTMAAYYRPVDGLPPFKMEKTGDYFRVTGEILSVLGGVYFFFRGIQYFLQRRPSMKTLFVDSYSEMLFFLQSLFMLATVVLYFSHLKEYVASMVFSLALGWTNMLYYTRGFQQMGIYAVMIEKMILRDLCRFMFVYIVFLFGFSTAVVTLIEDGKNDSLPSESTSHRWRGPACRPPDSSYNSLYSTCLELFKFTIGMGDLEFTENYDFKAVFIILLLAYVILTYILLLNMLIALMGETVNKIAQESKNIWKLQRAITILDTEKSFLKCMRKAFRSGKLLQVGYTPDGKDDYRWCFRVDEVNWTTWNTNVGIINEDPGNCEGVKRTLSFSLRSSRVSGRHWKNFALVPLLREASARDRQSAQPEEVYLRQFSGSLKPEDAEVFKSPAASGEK

Row | half-life at 1 μM [1] [min] | IC50 [2] [nM] | Structure (SMILES)
1 | 31 | 3.13 | Cc1cc([C@@H](C)NC(=O)COc2cc(F)c(C(C)(C)C)c(F)c2)ccc1NS(C)(=O)=O [Example 1, 2-(4-TERT-BUTYL-3,5-DIFLUOROPHENOXY)-N-((1R)-1-{3-METHYL-4-[(METHYLSULFONYL)AMINO]PHENYL}ETHYL)ACETAMIDE]
2 | 12 | 31.3 | C[C@@H](NC(=O)COc1cc(F)c(C(C)(C)C)c(F)c1)c1ccc(NS(C)(=O)=O)c(F)c1 [Example 2, 2-(4-TERT-BUTYL-3,5-DIFLUOROPHENOXY)-N-((1R)-1-{3-FLUORO-4-[(METHYLSULFONYL)AMINO]PHENYL}ETHYL)ACETAMIDE]
3 | 48 | 34.4 | C[C@@H](NC(=O)COc1cc(F)c(C(C)(C)C)c(F)c1)c1ccc(NS(C)(=O)=O)cc1 [Example 3, 2-(4-TERT-BUTYL-3,5-DIFLUOROPHENOXY)-N-((1R)-1-{4-[(METHYLSULFONYL)AMINO]PHENYL}ETHYL)ACETAMIDE]
4 | 5.8 | 8.7 | C[C@@H](NC(=O)COc1cc(F)c(C(C)(C)C)c(F)c1)c1ccc(NS(C)(=O)=O)c(CO)c1 [Example 4, 2-(4-TERT-BUTYL-3,5-DIFLUOROPHENOXY)-N-((1R)-1-{3-(HYDROXYMETHYL)-4-[(METHYLSULFONYL)AMINO]PHENYL}ETHYL)ACETOAMIDE]
5 | 13 | 7.55 | Cc1cc([C@@H](C)NC(=O)COc2cc(F)c(C(C)(C)C(F)(F)F)c(F)c2)ccc1NS(C)(=O)=O [Example 5, 2-[3,5-DIFLUORO-4-(2,2,2-TRIFLUORO-1,1-DIMETHYLETHYL)PHENOXY]-N-((1R)-1-{3-METHYL-4-[(METHYLSULFONYL)AMINO]PHENYL}ETHYL)ACETAMIDE]
